# Data reported in patent publication US20220395465A1, “STING AGONIST COMPRISING EXOSOMES COMBINED WITH IL-12 DISPLAYING EXOSOMES FOR TREATING A TUMOUR” (CODIAK BIOSCIENCES, INC., priority 2019, published 2022).
# Test system: MC38 tumor
# Assay: MC38 mouse tumor model, tumor growth, complete responses and rechallenge
# Format: in vivo, mice
# Conditions: equivalent IL-12 dose
# Protocol: Potency was assessed in vitro using human PBMCs or murine splenocytes and in vivo using mouse subcutaneous tumor models. Local versus systemic pharmacology was determined with intratumoral injection in mice and subcutaneous injection in monkeys. All studies were benchmarked against recombinant IL-12 (rIL-12).
# In addition, exoIL-12 administration led to enhanced intratumoral IFN-gamma AUC by about 4-fold as compared to recombinant IL-12 (FIG. 7B). […] This correlated with dose-dependent increases in tumor antigen-specific CD8+ T cells, which increased nearly 4-fold in exoIL-12 treated mice (FIG. 7E).
# Suppression of tumor growth was again observed following MC38 rechallenge (FIG. 7D).
substance,measurement,value
"rIL-12: recombinant IL-12, benchmark in all studies",complete responses (share of mice),0%
